One experiment has as its target T1, IKKε (Homo sapiens, UniProt Q14164).
T1 sequence (Q14164 1-716): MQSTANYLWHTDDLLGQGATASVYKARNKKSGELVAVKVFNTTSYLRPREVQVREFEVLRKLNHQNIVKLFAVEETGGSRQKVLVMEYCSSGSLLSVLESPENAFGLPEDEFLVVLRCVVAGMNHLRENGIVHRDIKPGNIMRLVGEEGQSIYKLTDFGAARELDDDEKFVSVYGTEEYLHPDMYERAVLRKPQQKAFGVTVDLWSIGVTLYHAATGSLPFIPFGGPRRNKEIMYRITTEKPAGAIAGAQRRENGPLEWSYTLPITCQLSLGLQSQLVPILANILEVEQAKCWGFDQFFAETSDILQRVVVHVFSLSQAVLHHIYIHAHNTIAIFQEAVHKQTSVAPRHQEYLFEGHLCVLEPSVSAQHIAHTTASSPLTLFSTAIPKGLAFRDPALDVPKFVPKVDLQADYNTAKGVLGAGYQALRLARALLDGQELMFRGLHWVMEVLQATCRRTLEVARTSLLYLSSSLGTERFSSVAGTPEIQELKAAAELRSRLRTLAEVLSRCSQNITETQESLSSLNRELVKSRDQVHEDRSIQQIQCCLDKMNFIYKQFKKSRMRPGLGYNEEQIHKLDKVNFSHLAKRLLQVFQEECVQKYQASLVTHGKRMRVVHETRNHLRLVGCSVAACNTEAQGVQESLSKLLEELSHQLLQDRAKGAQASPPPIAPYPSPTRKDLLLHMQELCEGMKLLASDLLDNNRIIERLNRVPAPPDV
Put plainly: IKKε biochemical assay. The conditions noted are these: 10 point 1:4 dose response, 30 uM top concentration, 90 min at 25° C., LabChip EZ Reader II; read-out: IKKε_IC50. In short, it runs like this: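 Mobility-shift LabChip read-out followed a 90 min, 25° C. reaction of IKKε with substrate and test compound, with DMSO held at 1% final. Reactions were ended with stop buffer. Wells with 10 uM final staurosporine defined complete inhibition, and DMSO-only wells the uninhibited level.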

The target in another experiment is T2, TBK1 (Homo sapiens, UniProt Q9UHD2).
T2 sequence (Q9UHD2 1-729): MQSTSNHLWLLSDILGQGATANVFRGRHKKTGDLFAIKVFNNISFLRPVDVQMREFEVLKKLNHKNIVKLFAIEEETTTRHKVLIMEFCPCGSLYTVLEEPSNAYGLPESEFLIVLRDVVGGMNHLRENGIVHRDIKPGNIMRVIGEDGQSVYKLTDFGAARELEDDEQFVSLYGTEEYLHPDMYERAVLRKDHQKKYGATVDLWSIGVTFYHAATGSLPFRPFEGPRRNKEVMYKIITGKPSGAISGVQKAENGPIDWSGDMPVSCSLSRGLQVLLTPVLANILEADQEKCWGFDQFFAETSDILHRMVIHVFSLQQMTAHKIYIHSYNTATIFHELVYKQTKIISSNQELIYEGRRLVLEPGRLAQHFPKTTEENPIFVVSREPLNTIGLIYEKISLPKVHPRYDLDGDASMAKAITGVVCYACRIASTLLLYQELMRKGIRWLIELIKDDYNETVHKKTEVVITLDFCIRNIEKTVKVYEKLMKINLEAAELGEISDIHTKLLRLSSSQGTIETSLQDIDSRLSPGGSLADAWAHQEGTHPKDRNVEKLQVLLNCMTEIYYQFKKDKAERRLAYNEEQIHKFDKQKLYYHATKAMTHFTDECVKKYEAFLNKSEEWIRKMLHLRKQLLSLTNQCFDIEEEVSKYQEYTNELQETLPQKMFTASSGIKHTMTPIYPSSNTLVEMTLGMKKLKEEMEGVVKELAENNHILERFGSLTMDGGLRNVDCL
Put plainly: TBK biochemical assay. The following applies: 10 point 1:4 dose response, 30 uM top concentration, 90 min at 25° C., LabChip EZ Reader II; read-out: TBK1_IC50. The gist of the method:
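Read-out was a Caliper LabChip mobility-shift assay, run after a 90-min, 25 °C reaction of TBK1 with substrate and compounds, quenched with stop buffer. Control wells received staurosporine at 10 uM final.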

For the molecule `Cc1cc(N2CCN(C3COC3)CC2)ccc1Nc1nccc(-c2ccc(OC3CCN(C(=O)[C@H](C)O)CC3(F)F)c(C#N)c2)n1` (stereo partly drawn) [Example 310, 2-([3,3-difluoro-1-[(2S)-2-hydroxypropanoyl]piperidin-4-yl]oxy)-5-[2-([2-methyl-4-[4-(oxetan-3-yl)piperazin-1-yl]phenyl]amino)pyrimidin-4-yl]benzonitrile], the IC50 at IKKε and on TBK1 was under 100 nM throughout.

`COc1cc(Nc2nccc(-c3ccc(OC4CCN(C(=O)[C@H](C)O)CC4(F)F)c(C#N)c3)n2)ccc1C1CCN(C2COC2)CC1` (stereo partly drawn) [Example 311, 2-([3,3-difluoro-1-[(2S)-2-hydroxypropanoyl]piperidin-4-yl]oxy)-5-[2-([3-methoxy-4-[1-(oxetan-3-yl)piperidin-4-yl]phenyl]amino)pyrimidin-4-yl]benzonitrile]: the IC50 at IKKε and at TBK1 was under 100 nM in each case.

Take `COc1nc(Nc2nccc(-c3ccc(N4CC5(CCNCC5)C4)c(C#N)c3)n2)ccc1N1CCN(C2COC2)CC1` [Example 312, 2-(2,7-Diaza-spiro[3.5]non-2-yl)-5-{2-[6-methoxy-5-(4-oxetan-3-yl-piperazin-1-yl)-pyridin-2-ylamino]-pyrimidin-4-yl}-benzonitrile]: the IC50 on IKKε and at TBK1 was 100 to 1000 nM in each case.

On to `COc1nc(Nc2nccc(-c3ccc(N4CCC5(CC4)CNC5)c(C#N)c3)n2)ccc1N1CCN(C2COC2)CC1` [Example 313, 2-(2,7-Diaza-spiro[3.5]non-7-yl)-5-{2-[6-methoxy-5-(4-oxetan-3-yl-piperazin-1-yl)-pyridin-2-ylamino]-pyrimidin-4-yl}-benzonitrile], for which the IC50 on IKKε was 100 to 1000 nM; at TBK1, under 100 nM.

Regarding `COc1nc(Nc2nccc(-c3ccc(N4CC5(CCN(C(=O)[C@H](C)O)CC5)C4)c(C#N)c3)n2)ccc1N1CCN(C2COC2)CC1` [Example 314, 2-[7-((S)-2-Hydroxy-propionyl)-2,7-diaza-spiro[3.5]non-2-yl]-5-{2-[6-methoxy-5-(4-oxetan-3-yl-piperazin-1-yl)-pyridin-2-ylamino]-pyrimidin-4-yl}-benzonitrile], the IC50 at IKKε and at TBK1 was under 100 nM each time.

Consider `COc1nc(Nc2nccc(-c3ccc(N4CC5(CCN(C(=O)[C@@H](O)CO)CC5)C4)c(C#N)c3)n2)ccc1N1CCN(C2COC2)CC1` [Example 315, 2-[7-((S)-2,3-Dihydroxy-propionyl)-2,7-diaza-spiro[3.5]non-2-yl]-5-{2-[6-methoxy-5-(4-oxetan-3-yl-piperazin-1-yl)-pyridin-2-ylamino]-pyrimidin-4-yl}-benzonitrile], for which the IC50 at IKKε and on TBK1 was under 100 nM each time.

For the molecule `COc1nc(Nc2nccc(-c3ccc(N4CCC5(CC4)CN(C(=O)[C@H](C)O)C5)c(C#N)c3)n2)ccc1N1CCN(C2COC2)CC1` [Example 316, 2-[2-((S)-2-Hydroxy-propionyl)-2,7-diaza-spiro[3.5]non-7-yl]-5-{2-[6-methoxy-5-(4-oxetan-3-yl-piperazin-1-yl)-pyridin-2-ylamino]-pyrimidin-4-yl}-benzonitrile], the IC50 on IKKε and on TBK1 was under 100 nM in each case.

Turning to `COc1cc(Nc2nccc(-c3ccc(OC4CCN(C(=O)[C@H](C)O)CC4)c(C#N)c3)n2)ncc1N1CCN(C2COC2)CC1` [Example 318, 2-([1-[(2S)-2-hydroxypropanoyl]piperidin-4-yl]oxy)-5-[2-([4-methoxy-5-[4-(oxetan-3-yl)piperazin-1-yl]pyridin-2-yl]amino)pyrimidin-4-yl]benzonitrile], the IC50 at IKKε and on TBK1 was 100 to 1000 nM throughout.

As to `COc1cc(Nc2nccc(-c3ccc(OC4CCN(C(=O)[C@@H](C)O)CC4)c(C#N)c3)n2)ncc1N1CCN(C2COC2)CC1` [Example 319, 2-([1-[(2R)-2-hydroxypropanoyl]piperidin-4-yl]oxy)-5-[2-([4-methoxy-5-[4-(oxetan-3-yl)piperazin-1-yl]pyridin-2-yl]amino)pyrimidin-4-yl]benzonitrile], the results for the IC50 at IKKε and on TBK1 were 100 to 1000 nM and 1000 to 5000 nM, respectively.

For the molecule `COc1cc(Nc2nccc(-c3ccc(OC4CCN(C(=O)[C@H](C)O)CC4)c(C#N)c3)n2)cnc1N1CCN(C2COC2)CC1` [Example 320, 2-([1-[(2S)-2-hydroxypropanoyl]piperidin-4-yl]oxy)-5-[2-([5-methoxy-6-[4-(oxetan-3-yl)piperazin-1-yl]pyridin-3-yl]amino)pyrimidin-4-yl]benzonitrile], the IC50 on IKKε and at TBK1 was under 100 nM in each case.

Take `COc1cc(Nc2nccc(-c3ccc(OC4CCN(C(=O)[C@@H](C)O)CC4)c(C#N)c3)n2)cnc1N1CCN(C2COC2)CC1` [Example 321, 2-([1-[(2R)-2-hydroxypropanoyl]piperidin-4-yl]oxy)-5-[2-([5-methoxy-6-[4-(oxetan-3-yl)piperazin-1-yl]pyridin-3-yl]amino)pyrimidin-4-yl]benzonitrile]: the IC50 at IKKε and on TBK1 was under 100 nM throughout.

Turning to `COc1cc(Nc2nccc(-c3ccc(OC4CCN(C(=O)[C@H](C)O)CC4(F)F)c(C#N)c3)n2)ncc1N1CCN(C2COC2)CC1` (stereo partly drawn) [Example 322, 2-([33-difluoro-1-[(2S)-2-hydroxypropanoyl]piperidin-4-yl]oxy)-5-[2-([4-methoxy-5-[4-(oxetan-3-yl)piperazin-1-yl]pyridin-2-yl]amino)pyrimidin-4-yl]benzonitrile], the IC50 at IKKε and at TBK1 was under 100 nM in each case.

`COc1cc(Nc2nccc(-c3ccc(OC4CCN(C(=O)[C@H](C)O)CC4(F)F)c(C#N)c3)n2)cnc1N1CCN(C2COC2)CC1` (stereo partly drawn) [Example 323, 2-([3,3-difluoro-1-[(2S)-2-hydroxypropanoyl]piperidin-4-yl]oxy)-5-[2-([5-methoxy-6-[4-(oxetan-3-yl)piperazin-1-yl]pyridin-3-yl]amino)pyrimidin-4-yl]benzonitrile]: the IC50 at IKKε and at TBK1 was under 100 nM in each case.

`COc1nc(Nc2nccc(-c3ccc(OC4CCN(C(=O)[C@H](C)O)CC4(F)F)c(C#N)c3)n2)ccc1C(=O)N(C)C` (stereo partly drawn) [Example 324, 6-([4-[3-cyano-4-([3,3-difluoro-1-[(2S)-2-hydroxypropanoyl]piperidin-4-yl]oxy)phenyl]pyrimidin-2-yl]amino)-2-methoxy-N,N-dimethylpyridine-3-carboxamide]: the IC50 at IKKε and at TBK1 was under 100 nM in each case.

On to `COc1nc(Nc2nccc(-c3ccc(OC4CCN(C(=O)[C@@H](C)O)CC4(F)F)c(C#N)c3)n2)ccc1C(=O)N(C)C` (stereo partly drawn) [Example 325, 6-([4-[3-cyano-4-([3,3-difluoro-1-[(2R)-2-hydroxypropanoyl]piperidin-4-yl]oxy)phenyl]pyrimidin-2-yl]amino)-2-methoxy-N,N-dimethylpyridine-3-carboxamide], for which the IC50 on IKKε and on TBK1 was under 100 nM in each case.

For the molecule `COc1cc(Nc2nccc(-c3ccc(OC4CCN(C(=O)CO)CC4(F)F)c(C#N)c3)n2)ccn1` (centres unmarked) [Example 326, 2-[[3,3-difluoro-1-(2-hydroxyacetyl)piperidin-4-yl]oxy]-5-[2-[(2-methoxypyridin-4-yl)amino]pyrimidin-4-yl]benzonitrile], the IC50 at IKKε and on TBK1 was under 100 nM throughout.
